Measured values reported in patent US8703988B2, “Self-assembled nanostructures” (Xerox Corporation, priority 2010, dated 2014).
Entries after “also recorded” stand apart in the source; their conditions may differ.

Columns and labels:
[1] = Self-assembled nanostructures observed by SEM and STEM; assay type: physicochemical
From the text: Microscopy techniques such as optical light microscopy, scanning electron microscopy (SEM), transmission electron microscopy (TEM), atomic force microscopy (AFM)/scanning probe microscopy (SPM), and fluorescence microscopy are useful for determining the size and morphology of the nano (and micro) structures formed from alkylated derivatives of aromatic acids. Samples are typically prepared by depositing a drop of the liquid composition containing the nanostructures onto an appropriate sample substrate such as a carbon film coated copper mesh TEM grid, removing the excess liquid by blotting with filter paper, and then allowing to dry prior to analysis. Dynamic light scattering is also useful for detecting the presence of particles between 1 nm and 1 μm in size, measuring the size/size distribution of the dispersed particles. Rheometry is useful for determining the viscoelastic properties and thermal phase transitions for compositions of the self-assembled nanostructures. X-ray diffraction is useful for characterizing the structure of the self-assembled nanostructures size as phase identification, crystallinity, phase transitions, crystal structure refinement and determination, and size and strain broadening of crystallite nanostructures. NMR spectroscopy is useful in detecting the formation intermolecular noncovalent interactions stabilizing the nanostructures, their diffusion properties, as well as phase transitions. UV-Vis can be used for detecting the presence of nanostructures as well as confirming the presence of intermolecular pi-stacking interactions. FT-IR spectroscopy is also useful for the detection of hydrogen-bonding interactions involved in stabilizing the self-assembled nanostructures. Differential Scanning calorimetry (DSC) is another useful characterization technique, which enables the identification of thermal phase transitions within the compositions containing the nanostructures.
This example describes the self-assembled nanostructures formed from alkylated derivatives of aromatic acids deposited onto substrates observed by Scanning Electron and Scanning Transmission Electron Microscopy (SEM and STEM, respectively).
Microscopy samples are prepared by mixing the alkylated derivatives of aromatic acids as solids with a solvent, subjecting the mixture to bath sonication, and then heating to form a clear solution. The solutions are then cooled to room temperature and allowed to age for desired periods of time prior to microscopy sample preparation. After cooling, the samples may be clear solutions, turbid colloidal solutions, or more opaque dispersions. Microscopy samples are prepared for analysis by depositing a drop on thin carbon film coated copper mesh grids, allowing the drop to remain on the film for a desired period of time, followed by wicking away the excess solvent with filter paper and allowing to dry. Table 5 summarizes examples of compositions containing nanostructures of alkylated derivatives of selected aromatic acids for this invention. FIGS. 1 to 7 show Scanning Electron Microscopy and Scanning Transmission Electron Microscopy images of the nanostructures formed from alkylated derivatives of selected aromatic acids.

[2] = Gelation test (gelator ability in solvents, vial inversion); assay type: physicochemical; set-up: key: I = insoluble; P = precipitate; S = solution; VS = viscous solution; G = gel; PG = partial gel; conditions: concentration in wt % in parentheses in each cell
Experimental: A number of characterization methods are useful for detecting and characterizing self-assembled nanostructures from alkylated derivatives of aromatic acids. The simplest test is to observe any changes in viscosity (rheology) of the liquid containing the alkylated compound relative to the neat liquid alone. […] The increase in viscosity and gelation of liquids is known to occur due to the presence and entanglement of long, 1D aggregates.
To vials with a screw cap lids (4 mL capacity) were added alkylated derivatives of aromatic acids as solids (1-100 mg) and a solvent (1 mL). The mixture was then sonicated and heated until clear solutions were obtained. After cooling and standing at room temperature for at least 30 min., the sample was inverted and inspected visually.

[3] = Xylenes:THF (1:1), 1.3 mg/mL, fibrils
[4] = solvent H2O, sonicated, heated, cooled, room temperature at least 30 min, vial inverted
[5] = Toluene, 0.1 mg/mL, bundles of fibrils

SMILES | gelator ability (state of sample) ([2]; solvent CHCl3) | gelator ability (state of sample) ([2]; solvent Ethylene Glycol) | gelator ability (state of sample) [2, 4] | gelator ability (state of sample) ([2]; solvent Hexadecane) | gelator ability (state of sample) ([2]; solvent Hexanes) | gelator ability (state of sample) ([2]; solvent MeOH) | gelator ability (state of sample) ([2]; solvent Toluene) | gelator ability (state of sample) ([2]; solvent Cyclohexane) | gelator ability (state of sample) ([2]; solvent Decalin) | gelator ability (state of sample) ([2]; solvent Dimethoxyethane) | gelator ability (state of sample) ([2]; solvent Xylenes) | Description (nanostructure) ([1]; Chloroform, 0.1 mg/mL) | L ([1]; Chloroform, 0.1 mg/mL, fibrils) | W ([1]; Chloroform, 0.1 mg/mL, fibrils) | also measured
CCCC(=O)Nc1cc(C(=O)O)cc(C(=O)O)c1 [compound 45, 5-(butyramido)isophthalic acid] | I (0.1) | S (0.1) | I (0.1) | I (1.1) | I (0.1) | S | I (1.3) |  |  |  |  |  |  |  | L [1, 3]: 50-1000 nm; W [1, 3]: 3-6 nm; L ([1]; Xylenes:THF (1:1), 1.3 mg/mL, sheets): 2000-10000 nm
CCCCCCCCCCCCC(CCCCCCCCCC)C(=O)Nc1cc(C(=O)O)cc(C(=O)O)c1 (stereo not shown) [compound 53, 5-(2-decyltetradecanamido)isophthalic acid] | G (0.4) | PG (2.0) | I (0.1) | G (1) | P (0.2), | S (0.1) | G (1.0) | G (1.0) | G (0.5) | G (0.6) | G (1) |  |  |  | Description (nanostructure) ([1]; Toluene, 0.1 mg/mL): Bundles of fibrils; L [1, 5]: >1000 nm; W [1, 5]: 20-100 nm; L ([1]; Toluene, 0.1 mg/mL, fibrils): >1000 nm; W ([1]; Toluene, 0.1 mg/mL, fibrils): 5-10 nm; gelator ability (state of sample) ([2]; solvent Benzene): G (0.4); gelator ability (state of sample) ([2]; solvent Dodecane): G (1)
CCCCCCCCCCCCCCCCCCNC(=O)Nc1cc(C(=O)O)cc(C(=O)O)c1 [compound 56] | I (0.1) | P (0.5) | I (0.1) | I (0.1) |  | G (2.0) | I (0.1) |  | G (2.3) | S (1.0) | G (2.0) | Fibrils | >1000 nm | 5-10 nm | 
CCCCCCCCCCCCC(CCCCCCCCCC)C(=O)Nc1cc(C(N)=O)cc(C(N)=O)c1 (stereo not shown) [compound 74, 5-(2-decyltetradecanamido)isophthalamide] | P (0.1) | P (2.5) | I (0.1) |  | I (0.1) | S (3.0) | I (0.5) | I (0.1) | I (2.0) | S (0.1) | I (2.0) | Fibrils | 50-1000 nm | 5-10 nm | Description (nanostructure) ([1]; Chloroform, 1.0 mg/mL): Fibers; L ([1]; Chloroform, 1.0 mg/mL, fibers): 300-800 nm; W ([1]; Chloroform, 1.0 mg/mL, fibers): 25-200 nm; Description (nanostructure) ([1]; EtOH:H2O, 1.0 mg/mL): Fibers; also recorded: Fibrils; L ([1]; EtOH:H2O, 1.0 mg/mL, fibers): >5000 nm; W ([1]; EtOH:H2O, 1.0 mg/mL, fibers): 50-250 nm; L ([1]; EtOH:H2O, 1.0 mg/mL, fibrils): 10-100 nm; W ([1]; EtOH:H2O, 1.0 mg/mL, fibrils): 5-10 nm
